We go through one compound from patent publication US20210024628A1, “METHODS FOR MODULATING INNATE LYMPHOID CELL ACTIVITY, ANTIBODY DRUG CONJUGATES AND USES IN THERAPY” (INSERM (INSTITUT NATIONAL DE LA SANTÉ ET DE LA RECHERCHE …, priority 2018, published 2021).

For assay [1], the system named is NK cells. Description: In vitro splenocyte stimulation: NK cell degranulation (CD107a). It counts as cell-based, mice. Particulars: stimulation with anti-NK1.1 antibodies or PMA and ionomycine, data not shown. As to the method: Splenocytes from control and GR^Ncr1-iCre mice were stimulated in vitro in complete culture medium (RPMI 10% FCS, 100 μg/ml penicillin/streptomycin, 2 mM 1-glutamine, 1 mM sodium pyruvate, and 0.01 M Hepes) with: 25 ng/ml IL-12 (eBiosciences), 25 ng/ml IL-15 (Peprotech) and 20 ng/ml IL-18 (MBL) alone or in combination, or with PMA (200 ng/ml, Sigma) and ionomycin (1 μg/ml, Sigma). For NK1.1 stimulation 96 well plates (Immulon 2HB) were coated overnight at 37° C. with 2.5 ul/well anti-NK1.1 Ab (PK136, eBiosciences) or IgG2a isotype control before cell plating. During stimulation, 250 or 500 nM corticosterone (Sigma; dissolved in ethanol) or the same volume of vehicle alone were added to the medium. Cells were stimulated at 37° C. in the presence of Golgi Stop and Golgi Plug from BD Biosciences. After 4 h of stimulation, the cells were washed and stained for FACS analysis. […]
Single-cell suspensions were obtained from the spleen by scratching it through 70 um cell strainer, or from the liver by scratching it through 100 um cell strainer and subsequent lymphocyte isolation on a 37.5%-67.5% Percoll gradient. […] Stained samples were analyzed in a BD LSRII flow cytometer (BD Biosciences). Apoptosis was detected with the FITC Annexin V Apoptosis Detection Kit I from BD Biosciences, according to the manufacturer's protocol.

In assay [2] the test system is NK cells. Description: In vitro splenocyte stimulation with cytokines: PD1 expression (FACS). It counts as cell-based, mice. As to the method:
Splenocytes from control and GR^Ncr1-iCre mice were stimulated in vitro in complete culture medium (RPMI 10% FCS, 100 μg/ml penicillin/streptomycin, 2 mM 1-glutamine, 1 mM sodium pyruvate, and 0.01 M Hepes) with: 25 ng/ml IL-12 (eBiosciences), 25 ng/ml IL-15 (Peprotech) and 20 ng/ml IL-18 (MBL) alone or in combination, or with PMA (200 ng/ml, Sigma) and ionomycin (1 μg/ml, Sigma). For NK1.1 stimulation 96 well plates (Immulon 2HB) were coated overnight at 37° C. with 2.5 ul/well anti-NK1.1 Ab (PK136, eBiosciences) or IgG2a isotype control before cell plating. During stimulation, 250 or 500 nM corticosterone (Sigma; dissolved in ethanol) or the same volume of vehicle alone were added to the medium. Cells were stimulated at 37° C. in the presence of Golgi Stop and Golgi Plug from BD Biosciences. After 4 h of stimulation, the cells were washed and stained for FACS analysis. For CD107a staining, 2.5 ul/well of anti-CD107a-FITC antibody (1D4B, BD Biosciences) were added during stimulation.
Single-cell suspensions were obtained from the spleen by scratching it through 70 um cell strainer, or from the liver by scratching it through 100 um cell strainer and subsequent lymphocyte isolation on a 37.5%-67.5% Percoll gradient. For isolation of small intestine lamina propria cells, intestines were cut longitudinally, then transversally in 2-3 cm pieces, thoroughly rinsed with PBS, and shaken for 30 minutes in PBS containing 10% FBS, 15 mM Hepes and 5 mM EDTA to remove intraepithelial and epithelial cells. Intestines were then digested with collagenase VIII (300UI/mL; Sigma) in complete RPMI for 45 minutes at 37° C. under agitation, and lamina propria lymphocytes were isolated on a 40%-100% Percoll gradient. Cells were incubated with the Fc blocking antibody (2.4G2) and with a fixable blue dead-cell stain kit (Invitrogen). Surface molecules were stained with antibodies against: CD45.2 (104), CD3 (145-2C11), CD19 (1D3), NK1.1 (PK136), CD49a (Ha31/8), CD11b (M1/70), MHCII (M5/114.15.2), TCRb (H57-597), PD1 (J43, and Hamster IgG2 isotype control), PDL1 (MIHS) from BD Biosciences; NKp46 (29A1.4), CD49b (DX5), F4/80 (BM8), Ly49H (3D10) from eBioscience; CD11c (N418), PD1 (RMP1-30, and Rat IgG2b isotype control), PDL2 (TY25) and Ly6G (1A8) from Biolegend. For intracellular staining, cells were fixed and permeabilized with an intracellular staining kit (eBioscience), and the following antibodies were used: anti-IFN-(XMG1.2) from Biolegend; anti-granzyme B (GB11), anti-Rort (Q31-378), anti-IL17 (TC11-18H10), anti-Ki67 (B56) from BD Biosciences, anti-IL-22 (JOP eBioscience, coupled to Alexa Fluor 647 with an antibody labeling kit from Life Technologies), anti-GR XP rabbit mAb (D8H2) and rabbit mAb IgG XP (DA1E) from Cell Signaling Technology. Stained samples were analyzed in a BD LSRII flow cytometer (BD Biosciences). Apoptosis was detected with the FITC Annexin V Apoptosis Detection Kit I from BD Biosciences, according to the manufacturer's protocol.

Turning to `C[C@]12C[C@H](O)[C@H]3[C@@H](CCC4=CC(=O)CC[C@@]43C)[C@@H]1CC[C@@H]2C(=O)CO` [Corticosterone, (11β)-11,21-Dihydroxypregn-4-ene-3,20-dione], the “ability of NK cells to degranulate (measured by their CD107a expression)” value with NK cells [1] is listed as “did not affect”. In addition, the “PD1 expression on NK cells” value is reported as “able to induce PD1 expression on NK cells, in a dose-dependent manner” with NK cells [2] (corticosterone (250 or 500 nM) with the combination IL-15+IL-18, splenocytes, 4 h); “not able to induce PD1 expression” with NK cells [2] (corticosterone alone, splenocytes, 4 h at 37° C.); “not able to induce PD1 expression” in the assay on NK cells [2] (corticosterone in the presence of IL-15, splenocytes, 4 h); “abrogate this effect” with NK cells [2] (corticosterone with IL-15+IL-18 and addition of IL-12). Besides, in the assay with NK cells [2] (corticosterone in addition to IL-15 and IL-18), the “PD1 induction on T cells” value is reported as “not observed”. For the same compound, the “PD1 induction on NK cells from GR^Ncr1-iCre mice” value with NK cells [2] (corticosterone in addition to IL-15 and IL-18, GR-deficient NK cells) is on record as “not observed”.
